Test results as given in patent US6528488B2, “Method for treating cystic fibrosis” (priority 1999, dated 2003).
Several values for one entry are separate records, joined by “and”; a condition that tells them apart may be missing. Equal entries are not always repeated. Where two headings read alike, the source gives them in different places. Ends that are not written are not given here.

Legend:
P. aeruginosa [1] = assay type: cell-based; conditions: for activity against P. aeruginosa: Example 5, FIG. 4; for cfu/plate: replicate plates; for efficacy in killing P. aeruginosa: Table 3, summary in words
Experimental: The standard procedure used for testing activity was incubation of the bacterial strain with the peptide for one hour at 37° C., followed by plating at two dilutions. Peptides having the following amino acid sequences (including P-113, as in Example 4) were tested for activity against P. aeruginosa under the conditions described above: P-113 and […] were tested against P. aeruginosa under the conditions described in the preceding examples. The dilution values were as follows: expected-2000 cfu/plate (in broth) from dilution A. A=1/2.5×dilution; plate 50 μl. B=1/2.5×dilution; plate 25 μl.

P. aeruginosa [2] = assay type: cell-based; conditions: ATCC strains and clinical CF isolates of Table 2 (assays D and A)
Experimental: These Pseudomonas clinical isolates, as well as a variety of Pseudomonas ATCC strains, were tested for their susceptibility to the histatin derivative having the sequence Ala-Lys-Arg-His-His-Gly-Tyr-Lys-Arg-Lys-Phe- His-NH2 (SEQ ID NO: 1) (P-113). P-113 was used at a concentration of 100 μg/mL to […]. P. aeruginosa ATCC 27853 was used as a control in each assay. The ATCC strains were tested using Direct Antibacterial Assay SOP 98-020; the clinical isolates were tested using either the Direct Antibacterial Assay (D) or Alamar Blue Antimicrobial/Antifungal Assay SOP 96-018 (A).
The Direct Assay is an MIC test in microtiter plate format in which cells resuspended in LM broth are exposed to two-fold dilutions of P-113, and the cell density is determined directly after an overnight incubation. Cells are inoculated onto a blood agar plate and incubated for 18 hours at 37° C., and then stored at room temperature for use later in the day. Cells are resuspended and diluted based on the optical density to a final concentration of 5×10^5 per ml in LM broth containing two-fold dilutions of antibiotics. After 16-18 hours at 37° C., the optical density is measured with a Molecular Devices Thermonix plate reader. A reading of ˜0.3 over background is observed for cells grown in the absence of drug. Readings<0.01 correlated with no visible growth. […]

For “Ala-Gln-Arg-His-His- Gly-Tyr-Lys-Arg-Gln-Phe-His-NH2 (AQRHHGYKRQFH-NH2) [P-113 Q2.10]”, the “activity against P. aeruginosa” value (P. aeruginosa [1]) was “very active”.
In the case of “Ala-Lys-Arg-Leu- Leu-Gly-Tyr-Lys-Arg-Lys-Phe-Leu-NH2 (AKRLLGYKRKFL-NH2) [P-113 L4.5.12]”, the “activity against P. aeruginosa” value (P. aeruginosa [1]) is reported as “also active”.
For `C[C@H](NC(=O)[C@H](Cc1c[nH]cn1)NC(=O)[C@H](CO)NC(=O)[C@@H](N)CC(=O)O)C(=O)N[C@@H](CCCCN)C(=O)N[C@@H](CCCNC(=N)N)C(=O)N[C@@H](Cc1c[nH]cn1)C(=O)N[C@@H](Cc1c[nH]cn1)C(=O)NCC(=O)N[C@@H](Cc1ccc(O)cc1)C(=O)N[C@@H](CCCCN)C(=O)N[C@@H](CCCNC(=N)N)C(=O)N[C@@H](CCCCN)C(=O)N[C@@H](Cc1ccccc1)C(=O)N[C@@H](Cc1c[nH]cn1)C(=O)N[C@@H](CCC(=O)O)C(=O)N[C@@H](CCCCN)C(=O)N[C@@H](Cc1c[nH]cn1)C(=O)N[C@@H](Cc1c[nH]cn1)C(=O)N[C@@H](CO)C(=O)N[C@@H](Cc1c[nH]cn1)C(=O)N[C@@H](CCCNC(=N)N)C(=O)NCC(=O)N[C@@H](Cc1ccc(O)cc1)C(=O)O` [His-5, histatin 5, reference compound], the cfu/plate (P. aeruginosa [1]; 0.5 μM, dilution A) was 150 cfu/plate and 164 cfu/plate, the cfu/plate (P. aeruginosa [1]; 0.5 μM, dilution B) was 90 cfu/plate and 96 cfu/plate and the cfu/plate (P. aeruginosa [1]; 5 μM, dilution A) was 143 cfu/plate and 159 cfu/plate. The cfu/plate (P. aeruginosa [1]; 5 μM, dilution B) was 73 cfu/plate and 68 cfu/plate, the cfu/plate (P. aeruginosa [1]; 200 μM, dilution A) was 0 cfu/plate and the cfu/plate (P. aeruginosa [1]; 200 μM, dilution B) was 0 cfu/plate. For the same molecule, the “efficacy in killing P. aeruginosa” value (P. aeruginosa [1]) was “effective in killing these bacteria”.
In the case of “Ala-Lys-Gln-His-His-Gly- Tyr-Lys-Gln-Lys-Phe-His-NH2 (AKQHHGYKQKFH-NH2) [P-113 Q3.9]”, the “activity against P. aeruginosa” value (P. aeruginosa [1]) is reported as “also active”.
In the case of “Ala-Gln-Gln-His-His-Gly-Tyr- Lys-Gln-Gln-Phe-His-NH2 (AQQHHGYKQQFH-NH2) [P-113 Q2.3.9.10]”, the “activity against P. aeruginosa” value (P. aeruginosa [1]) is reported as “inactive”.
“Ala-Lys-Arg- Tyr-Tyr-Gly-Tyr-Lys-Arg-Lys-Phe-Tyr-NH2 (AKRYYGYKRKFY-NH2) [P-113 Y4.5.12]” was tested, and the “activity against P. aeruginosa” value (P. aeruginosa [1]) was “very active”.
For “AKRHHGYKRKFH-NH2 [P-113, Ala-Lys-Arg-His-His-Gly-Tyr-Lys-Arg-Lys-Phe- His-NH2]”, the cfu/plate (P. aeruginosa [1]; 5 μM as printed, second P-113 5 μM line (after His-5 0.5 μM), dilution A) was 133 cfu/plate and 170 cfu/plate, the cfu/plate (P. aeruginosa [1]; 5 μM as printed, second P-113 5 μM line (after His-5 0.5 μM), dilution B) was 88 cfu/plate and 85 cfu/plate and the cfu/plate (P. aeruginosa [1]; 50 μM, dilution A) was 0 cfu/plate. The cfu/plate (P. aeruginosa [1]; 200 μM, dilution A) was 0 cfu/plate, the cfu/plate (P. aeruginosa [1]; 200 μM, dilution B) was 0 cfu/plate and the “activity against P. aeruginosa” value (P. aeruginosa [1]) was “very active”. For the same molecule, the “efficacy in killing P. aeruginosa” value (P. aeruginosa [1]) was “greater efficacy than His-5” and the “effectiveness against the Pseudomonas strains tested” value (P. aeruginosa [2]) was “effective against nearly all of the Pseudomonas strains tested”.
